The record followed here is paper PMC3477601 (Bioorganic & medicinal chemistry letters, 2012).

Values joined by “and” are separate entries in the source; they are usually repeats but may differ in a detail not shown here. Equal entries are not always repeated. Where two headings read alike, the source gives them in different places.

The target of data set [1] is T1, PPAR-α (Mus musculus, UniProt P23204). Particulars: post-PET.
For data set [2], the target named is T1, PPAR-α. Conditions: dynamic PET 0–60 min post iv injection.
Setting [3] is: PPAR-α overexpressing transgenic mice.

T1 sequence (P23204 whole entry): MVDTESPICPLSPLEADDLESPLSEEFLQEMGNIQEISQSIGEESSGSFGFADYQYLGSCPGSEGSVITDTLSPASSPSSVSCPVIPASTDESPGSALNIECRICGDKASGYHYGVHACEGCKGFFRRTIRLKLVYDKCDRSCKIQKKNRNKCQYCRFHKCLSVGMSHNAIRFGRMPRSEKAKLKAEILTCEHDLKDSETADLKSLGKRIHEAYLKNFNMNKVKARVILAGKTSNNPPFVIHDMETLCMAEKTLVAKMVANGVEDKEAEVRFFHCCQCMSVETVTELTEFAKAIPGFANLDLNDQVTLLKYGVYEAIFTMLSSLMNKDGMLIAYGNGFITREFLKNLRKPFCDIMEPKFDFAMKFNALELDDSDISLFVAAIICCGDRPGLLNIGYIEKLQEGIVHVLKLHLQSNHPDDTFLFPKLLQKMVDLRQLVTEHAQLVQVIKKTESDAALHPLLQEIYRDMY

Turning to `CC(C)(Sc1ccc(CCN(CCCCC2CCCCC2)C(=O)Nc2ccc(O[11CH3])cc2)cc1)C(=O)O` [[^11C]KSM-01], in data set [1] (setting [3]), the Cardiac tissue uptake worked out at 1.09 ± 0.246 %ID/g. For the same molecule, the Blood uptake in data set [1] (TG (male MHC PPAR-α overexpressing transgenic mice)) was found to be 0.42±0.14 %ID/g. In data set [1] (TG), this molecule came in with a Kidney uptake of 2.58±0.56 %ID/g, a Liver uptake of 55.031 ± 4.926 %ID/g, a Lung uptake of 2.65±0.34 %ID/g and a Muscle uptake of 0.36±0.15 %ID/g. The same molecule came in with a Spleen uptake in data set [1] (TG) of 1.33±0.29 %ID/g. The molecule further displayed a Blood uptake in data set [1] (WT (wild type mice)) of 0.42±0.10 %ID/g. Besides, in data set [1] (WT), the Liver uptake was 60.699 ± 0.774 %ID/g and 60.69±0.77 %ID/g; the Lung uptake is listed as 2.11±0.31 %ID/g; the Muscle uptake is 0.35±0.18 %ID/g; the Spleen uptake turned out to be 1.55±0.14 %ID/g. This molecule registered a Cardiac tissue uptake in data set [1] (wild type littermates) of 0.479 ± 0.007 %ID/g. In data set [2] (setting [3]), the “Standard uptake value (SUV)” value worked out at 0.68±0.007. In addition, the “Standard uptake value (SUV)” value in data set [2] (control (wild-type) mice) is 0.37±0.09.
